Laboratory results: US10562893B2, “Benzimidazoles derivatives as Tec kinases family inhibitors” (GB005, Inc., priority 2015, dated 2020)

How the values were obtained:
ITK = ITK (Homo sapiens (Human), UniProt Q08881); experiment: ITK kinase inhibition assay; format: biochemical; conditions: micro-fluidic detection, 3 hours at 25° C.
Procedure: (§1) The in vitro kinase assays were performed at Nanosyn utilizing micro-fluidic detection technology. The test compounds were serially pre-diluted in DMSO and added, by the acoustic dispensing (Labcyte® 550), directly to 384 well assay plates into 10 uL of a buffer with enzyme comprising: 100 mM HEPES, pH7.5, 5 mM MgCl2, 0.1% bovine serum albumin, 1 mM DTT, 0.01% Triton X-100 and the enzyme. Final DMSO concentration was maintained at 1% in all samples, including the controls. The reactions were initiated by addition of ATP (to the specified concentration) and the fluorescently labeled peptide substrate to a final concentration of 1 uM, and incubated for 3 hours at 25° C. Following incubation, the reactions were quenched by addition of 40 μL of termination buffer (100 mM HEPES, pH7.5, 0.01% Triton X-100, 50 mM EDTA). Terminated plates were analyzed using Caliper LabChip® 3000 microfluidic electrophoresis instrument (Caliper Life Sciences/Perkin Elmer). The enzymatic modification of the peptide substrate (phosphorylation) results in a change of net charge enabling electrophoretic separation of product from substrate. As substrate and product are separated by electrophoresis, two peaks of fluorescence are observed. Change in the relative fluorescence intensity of the substrate and product peaks was the parameter measured, reflecting enzyme activity. In the presence of inhibitor, the ratio between product and substrate is altered: signal of the product decreases, while the signal of the substrate increases. Activity in each test sample was determined as the product to sum ratio (PSR):P/(S+P), where P is the peak height of the product and S is the peak height of the FAM-cAMP substrate. For each compound, enzyme activity was measured at 12 concentrations spaced by 3× dilution intervals. Negative control samples (0%-inhibition in the absence of inhibitor, DMSO only) and positive control samples (100%-inhibition, in the absence of enzyme or in the presence of control inhibitor) were assembled in replicates of four and were used to calculate %-inhibition values in the presence of compounds. Percent inhibition (Pinh) was determined using the following equation: Pinh=(PSR0%−PSRinh)/(PSR0%−PSR100%)*100, where PSRinh is the product sum ratio in the presence of inhibitor, PSR0% is the product sum ratio in the absence of inhibitor and PSR100% is the product sum ratio in 100%-inhibition control samples. To determine IC50 values, the inhibition curves (Pinh versus inhibitor concentration) were fitted by 4 parameter sigmoid dose-response model using XLfit software (IDBS).

Human PBMCs = experiment: CD3/CD28 mediated PBMC proliferation assay; format: cell-based; conditions: proliferation of human PBMCs stimulated with anti-CD3 and anti-CD28, 72 hours, Cell Titer-Glo
Procedure: Inhibition of cellular ITK was assessed by measuring proliferation of PBMCs following stimulation with anti-CD3 and anti-CD28 antibodies. Individual wells of 96 well tissue culture plates were coated with 50 μL of 5 μg/mL anti-CD3 (OKT3, eBiosciences) for 2 hours at 37° C. Human PBMCs (Stemcell Technologies catalog #70025.3) were plated in 96-well plates at a final concentration of 9.2×10e5 cells/mL in complete media (RPMI, 10% heat inactivated FBS, 55 uM β-mercaptoethanol) and pre-treated with compound curves for 30 minutes at 37° C., 5% CO2. Pre-treated cells plus compounds were transferred to washed anti-CD3 coated plates. Soluble anti-CD28 (CD28.2 eBiosciences) was added to each well at a final concentration of 2 μg/mL. The cells were placed in a humidified 37° C. incubator with 5% CO2 for 72 hours and metabolic viability was measured by quantification of ATP levels with Cell Titer-Glo (Promega catalog # G9242). Controls included unstimulated cells and vehicle alone. EC50 values (50% proliferation in the presence of compound as compared to vehicle treated controls) were calculated from dose response compound curves using GraphPad Prism Software.

[1] = system: Jurkat human acute T cell leukemia cells; experiment: Jurkat IL-2 release assay; format: cell-based; conditions: IL-2 release from Jurkat cells stimulated with anti-CD3 and anti-CD28, 48 hours, ELISA
Procedure: Inhibition of cellular ITK was assessed by measuring release of IL-2 following stimulation with anti-CD3 and anti-CD28 antibodies. Individual wells of 96 well tissue culture plates were coated with 50 μL of 10 μg/mL anti-CD3 (OKT3, eBiosciences) for 2 hours at 37° C. Jurkat human acute T cell leukemia cells (ATCC) were plated in 96-well plates at a final concentration of 9.2×10e5 cells/mL in complete media (RPMI, 10% FBS, 1.5 g/L sodium bicarbonate, 10 mM Hepes, 1 mM sodium pyruvate, 4.5 g/L glucose) and pre-treated with compound curves for 30 minutes at 37° C., 5% CO2. Pre-treated cells plus compounds were transferred to washed anti-CD3 coated plates. Soluble anti-CD28 (CD28.2 eBiosciences) was added to each well at a final concentration of 1 μg/mL. The cells were placed in a humidified 37° C. incubator with 5% CO2 for 48 hours and IL-2 release was measured using a commercial ELISA (BD Bioscience catalog #555190). Controls included unstimulated cells and vehicle alone. EC50 values (50% IL-2 release in the presence of compound as compared to vehicle treated controls) were calculated from dose response compound curves using GraphPad Prism Software.

RLK/TXK = RLK/TXK (Homo sapiens (Human), UniProt P42681); experiment: RLK/TXK kinase inhibition assay; format: biochemical; conditions: micro-fluidic detection, 3 hours at 25° C.
Procedure: as §1, with “384well” for “384 well”, “(PSR): P/(S+P),” for “(PSR):P/(S+P),”

Sequence of ITK (Q08881 whole entry): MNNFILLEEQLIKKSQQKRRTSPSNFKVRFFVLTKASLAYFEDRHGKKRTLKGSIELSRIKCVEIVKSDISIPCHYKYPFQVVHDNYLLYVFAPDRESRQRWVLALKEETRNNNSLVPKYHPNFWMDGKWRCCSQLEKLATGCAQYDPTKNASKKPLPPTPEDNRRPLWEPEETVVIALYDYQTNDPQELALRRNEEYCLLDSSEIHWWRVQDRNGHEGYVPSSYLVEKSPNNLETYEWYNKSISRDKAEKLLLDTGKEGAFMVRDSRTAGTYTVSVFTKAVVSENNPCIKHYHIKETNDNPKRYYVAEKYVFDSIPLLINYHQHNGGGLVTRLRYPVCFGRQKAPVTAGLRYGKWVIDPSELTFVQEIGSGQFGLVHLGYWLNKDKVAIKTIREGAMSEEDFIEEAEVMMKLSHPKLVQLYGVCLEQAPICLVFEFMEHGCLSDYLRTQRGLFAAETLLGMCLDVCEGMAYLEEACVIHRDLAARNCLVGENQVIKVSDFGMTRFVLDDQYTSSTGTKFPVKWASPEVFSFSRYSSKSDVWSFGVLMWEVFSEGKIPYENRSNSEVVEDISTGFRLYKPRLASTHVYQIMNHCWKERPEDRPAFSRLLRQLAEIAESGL
Sequence of RLK/TXK (P42681 whole entry): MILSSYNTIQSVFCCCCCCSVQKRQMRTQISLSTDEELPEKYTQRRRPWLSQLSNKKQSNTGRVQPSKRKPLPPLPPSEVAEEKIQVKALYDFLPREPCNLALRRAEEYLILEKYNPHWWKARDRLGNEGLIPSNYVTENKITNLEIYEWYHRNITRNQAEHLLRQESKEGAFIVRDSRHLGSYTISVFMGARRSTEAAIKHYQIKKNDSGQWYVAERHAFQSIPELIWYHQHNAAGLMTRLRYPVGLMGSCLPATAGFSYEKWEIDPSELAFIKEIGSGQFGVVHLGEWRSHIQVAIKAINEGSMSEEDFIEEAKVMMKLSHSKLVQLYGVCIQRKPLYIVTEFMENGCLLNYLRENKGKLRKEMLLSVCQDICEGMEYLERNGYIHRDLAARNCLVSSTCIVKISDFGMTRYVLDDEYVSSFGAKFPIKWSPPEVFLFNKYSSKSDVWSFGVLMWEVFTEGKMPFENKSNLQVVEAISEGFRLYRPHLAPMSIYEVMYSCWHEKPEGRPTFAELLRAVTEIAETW

| Compound | EC50 (ITK) [µM] | EC50 (Human PBMCs) [µM] | EC50 [1] [µM] | EC50 (RLK/TXK) [µM] |
| --- | --- | --- | --- | --- |
| C=CC(=O)N[C@H]1C[C@@H](n2c(NC(=O)c3ccc(C(F)F)s3)nc3cc(CN[C@@H](C)C(C)(C)C)ccc32)C1 [Compound 1] | < 0.01 | 0.01 to 0.1 | 0.01 to 0.1 | 0.01 to 0.1 |
| C=CC(=O)N[C@H]1CC[C@@H](n2c(NC(=O)c3ccc(C(F)F)s3)nc3cc(CN[C@@H](C)C(C)(C)C)ccc32)CC1 [Compound 3] | 0.01 to 0.1 | > 0.1 | 0.01 to 0.1 | 0.01 to 0.1 |
| C=CC(=O)Nc1cccc(-n2c(NC(=O)c3ccc(C#N)cc3)nc3cc(CN[C@@H](C)C(C)(C)C)ccc32)c1 [Compound 11] | < 0.01 | 0.01 to 0.1 | > 0.1 | < 0.01 |
| C=CC(=O)Nc1cccc(-n2c(NC(=O)c3nccs3)nc3cc(CN[C@@H](C)C(C)(C)C)ccc32)c1 [Compound 12] | > 0.1 | > 0.1 | > 0.1 | 0.01 to 0.1 |
| C=CC(=O)Nc1cccc(-n2c(NC(=O)c3ccncc3)nc3cc(CN[C@@H](C)C(C)(C)C)ccc32)c1 [Compound 16] | < 0.01 | 0.01 to 0.1 | 0.01 to 0.1 | < 0.01 |
| C=CC(=O)Nc1cccc(-n2c(NC(=O)c3cncs3)nc3cc(CN[C@@H](C)C(C)(C)C)ccc32)c1 [Compound 17] | 0.01 to 0.1 | 0.01 to 0.1 | 0.01 to 0.1 | < 0.01 |
| C=CC(=O)N[C@@H]1CC[C@H](n2c(NC(=O)c3ccc(C(F)F)s3)nc3cc(CN[C@@H](C)C(C)(C)C)ccc32)C1 [Compound 18] | < 0.01 | 0.01 to 0.1 | < 0.01 | < 0.01 |
| C=CC(=O)Nc1cccc(-n2c(NC(=O)c3cccnc3)nc3cc(CN[C@@H](C)C(C)(C)C)ccc32)c1 [Compound 19] | < 0.01 | 0.01 to 0.1 | < 0.01 | 0.01 to 0.1 |
| C=CC(=O)Nc1cccc(-n2c(NC(=O)c3ccccn3)nc3cc(CN[C@@H](C)C(C)(C)C)ccc32)c1 [Compound 27] | > 0.1 | > 0.1 | > 0.1 | > 0.1 |
| C=CC(=O)Nc1cccc(-n2c(NC(=O)c3ccc(C(F)F)s3)nc3cc(CN[C@H]4CC[C@H](O)CC4)ccc32)c1 [Compound 31] | < 0.01 | < 0.01 | < 0.01 | < 0.01 |
| C=CC(=O)Nc1cccc(-n2c(NC(=O)c3cncnc3)nc3cc(CN[C@@H](C)C(C)(C)C)ccc32)c1 [Compound 41] | – | 0.01 to 0.1 | < 0.01 | – |
| C=CC(=O)Nc1cccc(-n2c(NC(=O)c3cnco3)nc3cc(CN[C@@H](C)C(C)(C)C)ccc32)c1 [Compound 42] | 0.01 to 0.1 | 0.01 to 0.1 | < 0.01 | 0.01 to 0.1 |
| C=CC(=O)Nc1cccc(-n2c(NC(=O)c3ccns3)nc3cc(CN[C@@H](C)C(C)(C)C)ccc32)c1 [Compound 43] | < 0.01 | < 0.01 | < 0.01 | < 0.01 |
| C=CC(=O)N[C@H]1CC[C@@H](n2c(NC(=O)c3ccc(C#N)cc3)nc3cc(CN[C@@H](C)C(C)(C)C)ccc32)CC1 [Compound 54] | – | > 0.1 | > 0.1 | – |
| C=CC(=O)N1CCOc2ccc(-n3c(NC(=O)c4ccc(C(F)F)s4)nc4cc(CN[C@@H](C)C(C)(C)C)ccc43)cc21 [Compound 57] | – | 0.01 to 0.1 | 0.01 to 0.1 | – |
| C=CC(=O)Nc1cccc(-n2c(NC(=O)c3ccc(C(F)F)s3)nc3cc(CN4CCN(CCO)CC4)ccc32)c1 [Compound 59] | – | < 0.01 | < 0.01 | – |
| C=CC(=O)N[C@H]1CC[C@@H](n2c(NC(=O)c3ccns3)nc3cc(CN[C@@H](C)C(C)(C)C)ccc32)CC1 [Compound 67] | – | > 0.1 | 0.01 to 0.1 | – |
| C=CC(=O)N[C@H]1CCC[C@@H](n2c(NC(=O)c3ccc(C(F)F)s3)nc3cc(CN[C@@H](C)C(C)(C)C)ccc32)C1 [Compound 68] | < 0.01 | < 0.01 | – | < 0.01 |
| CC#CC(=O)Nc1cccc(-n2c(NC(=O)c3ccc(C(F)F)s3)nc3cc(CN[C@@H](C)C(C)(C)C)ccc32)c1 [Compound 72] | – | > 0.1 | 0.01 to 0.1 | – |
| C=CC(=O)Nc1cccc(-n2c(NC(=O)c3ccns3)nc3cc(CN4CCOCC4)ccc32)c1 [Compound 73] | – | 0.01 to 0.1 | < 0.01 | – |
| C=CC(=O)Nc1cccc(-n2c(NC(=O)c3ccno3)nc3cc(CN4CCOCC4)ccc32)c1 [Compound 76] | – | 0.01 to 0.1 | < 0.01 | – |
| C[C@H](NCc1ccc2c(c1)nc(NC(=O)c1ccc(C(F)F)s1)n2-c1cccc(NC(=O)/C=C/CN(C)C)c1)C(C)(C)C [Compound 78] | – | > 0.1 | 0.01 to 0.1 | – |
| C=CC(=O)Nc1cccc(-n2c(NC(=O)c3ccc(C(F)F)s3)nc3cc(N(C)S(C)(=O)=O)ccc32)c1 [Compound 80] | – | 0.01 to 0.1 | 0.01 to 0.1 | – |
| C=C(F)C(=O)Nc1cccc(-n2c(NC(=O)c3ccc(C(F)F)s3)nc3cc(CN[C@@H](C)C(C)(C)C)ccc32)c1 [Compound 84] | – | 0.01 to 0.1 | 0.01 to 0.1 | – |
